Data from patent US12552766B2, “Pesticidally active azole amide compounds” (SYNGENTA CROP PROTECTION AG, priority 2019, dated 2026).

How the values were obtained:
Type in all cases: in vivo
[1] = tested on: Chilo suppressalis (Striped Rice Stemborer); assay: Example B4: Chilo suppressalis, artificial diet; conditions: 144 h, application rate of 200 ppm, L2 larvae, 6 days after infestation, read-out: control in at least one of the three categories (mortality, anti-feedant effect, or growth inhibition)
Method: 24-well microtiter plates with artificial diet were treated with aqueous test solutions prepared from 10′000 ppm DMSO stock solutions by pipetting. After drying, the plates were infested with L2 larvae (6-8 per well). The samples were assessed for mortality, anti-feeding effect, and growth inhibition in comparison to untreated samples 6 days after infestation. Control of Chilo suppressalis by a test sample is given when at least one of the categories mortality, anti-feedant effect, and growth inhibition is higher than the untreated sample.

[2] = tested on: Plutella xylostella (Diamond Back Moth); assay: Example B5: Plutella xylostella, artificial diet, 24-well; conditions: 192 h, application rate of 200 ppm, eggs, 8 days after infestation, read-out: control in at least one of the two categories (mortality or growth inhibition)
Method: 24-well microtiter plates with artificial diet were treated with aqueous test solutions prepared from 10′000 ppm DMSO stock solutions by pipetting. After drying, Plutella eggs were pipetted through a plastic stencil onto a gel blotting paper and the plate was closed with it. The samples were assessed for mortality and growth inhibition in comparison to untreated samples 8 days after infestation.

[3] = tested on: Plutella xylostella (Diamondback Moth); assay: Example B13: Plutella xylostella, artificial diet, 96-well; conditions: 216 h, application rate of 500 ppm, eggs/L1 larvae, 9 days after infestation
Method: 96-well microtiter plates containing artificial diet were treated with aqueous test solutions, prepared from 10′000 ppm DMSO stock solutions, by a liquid handling robot. After drying, eggs (˜30 per well) were infested onto a netted lid which was suspended above the diet. The eggs hatch and L1 larvae move down to the diet. The samples were assessed for mortality 9 days after infestation.

[4] = tested on: Spodoptera littoralis (Egyptian Cotton Leaf Worm); assay: Example B9: Spodoptera littoralis, spray on cotton leaf discs; conditions: foliar, 72 h, application rate of 200 ppm, L1 larvae, 3 days after infestation, read-out: control in at least one of the three categories (mortality, anti-feedant effect, or growth inhibition)
Method: Cotton leaf discs were placed onto agar in 24-well microtiter plates and sprayed with aqueous test solutions prepared from 10′000 ppm DMSO stock solutions. After drying the leaf discs were infested with five L1 larvae. The samples were assessed for mortality, anti-feeding effect, and growth inhibition in comparison to untreated samples 3 days after infestation. Control of Spodoptera littoralis by a test sample is given when at least one of the categories mortality, anti-feedant effect, and growth inhibition is higher than the untreated sample.

[5] = tested on: Diabrotica Balteata (Corn Root Worm); assay: Example B1: Diabrotica balteata, spray on maize sprouts; conditions: 96 h, application rate of 200 ppm, L2 larvae, 4 days after infestation, read-out: control in at least one of the two categories (mortality or growth inhibition)
Method: Maize sprouts placed onto an agar layer in 24-well microtiter plates were treated with aqueous test solutions prepared from 10′000 ppm DMSO stock solutions by spraying. After drying, the plates were infested with L2 larvae (6 to 10 per well). The samples were assessed for mortality and growth inhibition in comparison to untreated samples 4 days after infestation.

CC(NC(=O)c1cc(Br)cc(C(F)(F)F)c1)c1nc(Br)nn1-c1ncc(OC(F)F)cn1 (stereo not shown) [Compound P1, 3-bromo-N-[1-[5-bromo-2-[5-(difluoromethoxy)pyrimidin-2-yl]-1,2,4-triazol-3-yl]ethyl]-5-(trifluoromethyl) benzamide]
≥ 80%: percent control (mortality, anti-feedant effect or growth inhibition) at 200 ppm [1] | percent control (mortality or growth inhibition) at 200 ppm [2] | mortality at 500 ppm [3] | percent control (mortality, anti-feedant effect or growth inhibition) at 200 ppm [4] | percent control (mortality or growth inhibition) at 200 ppm [5]

CC(NC(=O)c1cc(OC(F)F)cc(C(F)(F)F)c1)c1nc(Br)nn1-c1ncc(OC(F)F)cn1 (stereo not shown) [Compound P3, N-[1-[5-bromo-2-[5-(difluoromethoxy)pyrimidin-2-yl]-1,2,4-triazol-3-yl]ethyl]-3-(difluoromethoxy)-5-(trifluoromethyl) benzamide]
≥ 80%: percent control (mortality, anti-feedant effect or growth inhibition) at 200 ppm [1] | percent control (mortality or growth inhibition) at 200 ppm [2] | mortality at 500 ppm [3] | percent control (mortality, anti-feedant effect or growth inhibition) at 200 ppm [4] | percent control (mortality or growth inhibition) at 200 ppm [5]

CC(NC(=O)c1cc(OCC(F)(F)F)cc(C(F)(F)F)c1)c1nc(Br)nn1-c1ncc(OC(F)F)cn1 (stereo not shown) [Compound P4, N-[1-[5-bromo-2-[5-(difluoromethoxy)pyrimidin-2-yl]-1,2,4-triazol-3-yl]ethyl]-3-(2,2,2-trifluoroethoxy)-5-(trifluoromethyl) benzamide]
≥ 80%: percent control (mortality, anti-feedant effect or growth inhibition) at 200 ppm [1] | percent control (mortality or growth inhibition) at 200 ppm [2] | mortality at 500 ppm [3] | percent control (mortality, anti-feedant effect or growth inhibition) at 200 ppm [4] | percent control (mortality or growth inhibition) at 200 ppm [5]

CC(NC(=O)c1cc(C(F)F)cc(C(F)(F)F)c1)c1nc(Br)nn1-c1ccc(C#N)cn1 (stereo not shown) [Compound P8, N-[1-[5-bromo-2-(5-cyano-2-pyridyl)-1,2,4-triazol-3-yl]ethyl]-3-(difluoromethyl)-5-(trifluoromethyl) benzamide]
≥ 80%: percent control (mortality, anti-feedant effect or growth inhibition) at 200 ppm [1] | percent control (mortality or growth inhibition) at 200 ppm [2] | mortality at 500 ppm [3] | percent control (mortality, anti-feedant effect or growth inhibition) at 200 ppm [4] | percent control (mortality or growth inhibition) at 200 ppm [5]

CC(NC(=O)c1cc(Br)cc(C(F)(F)F)c1)c1nc(Br)nn1-c1ccc(OC(F)F)cn1 (stereo not shown) [Compound P13, 3-bromo-N-[1-[5-bromo-2-[5-(difluoromethoxy)-2-pyridyl]-1,2,4-triazol-3-yl]ethyl]-5-(trifluoromethyl) benzamide]
≥ 80%: percent control (mortality, anti-feedant effect or growth inhibition) at 200 ppm [1] | percent control (mortality or growth inhibition) at 200 ppm [2] | mortality at 500 ppm [3] | percent control (mortality, anti-feedant effect or growth inhibition) at 200 ppm [4] | percent control (mortality or growth inhibition) at 200 ppm [5]

CC(NC(=O)c1cc(C(F)(F)F)cc(C(F)(F)F)c1)c1nc(Br)nn1-c1ccc(OCC(F)F)cn1 (stereo not shown) [Compound P15, N-[1-[5-bromo-2-[5-(2,2-difluoroethoxy)-2-pyridyl]-1,2,4-triazol-3-yl]ethyl]-3,5-bis(trifluoromethyl) benzamide]
≥ 80%: percent control (mortality, anti-feedant effect or growth inhibition) at 200 ppm [1] | percent control (mortality or growth inhibition) at 200 ppm [2] | mortality at 500 ppm [3] | percent control (mortality, anti-feedant effect or growth inhibition) at 200 ppm [4] | percent control (mortality or growth inhibition) at 200 ppm [5]

CC(NC(=O)c1cc(C(F)(F)F)cc(C(F)(F)F)c1)c1nc(Br)nn1-c1ccc(OCC(F)(F)F)cn1 (stereo not shown) [Compound P17, N-[1-[5-bromo-2-[5-(2,2,2-trifluoroethoxy)-2-pyridyl]-1,2,4-triazol-3-yl]ethyl]-3,5-bis(trifluoromethyl) benzamide]
≥ 80%: percent control (mortality, anti-feedant effect or growth inhibition) at 200 ppm [1] | percent control (mortality or growth inhibition) at 200 ppm [2] | mortality at 500 ppm [3] | percent control (mortality, anti-feedant effect or growth inhibition) at 200 ppm [4] | percent control (mortality or growth inhibition) at 200 ppm [5]

CC(NC(=O)c1cc(Br)cc(C(F)(F)F)c1)c1nc(Br)nn1-c1ncc(OCC(F)F)cn1 (stereo not shown) [Compound P18, 3-bromo-N-[1-[5-bromo-2-[5-(2,2-difluoroethoxy)pyrimidin-2-yl]-1,2,4-triazol-3-yl]ethyl]-5-(trifluoromethyl) benzamide]
≥ 80%: percent control (mortality, anti-feedant effect or growth inhibition) at 200 ppm [1] | percent control (mortality or growth inhibition) at 200 ppm [2] | mortality at 500 ppm [3] | percent control (mortality, anti-feedant effect or growth inhibition) at 200 ppm [4] | percent control (mortality or growth inhibition) at 200 ppm [5]

CC(NC(=O)c1cc(OCC(F)F)cc(C(F)(F)F)c1)c1nc(Br)nn1-c1ncc(OCC(F)(F)F)cn1 (stereo not shown) [Compound P20, N-[1-[5-bromo-2-[5-(2,2,2-trifluoroethoxy)pyrimidin-2-yl]-1,2,4-triazol-3-yl]ethyl]-3-(2,2-difluoroethoxy)-5-(trifluoromethyl) benzamide]
≥ 80%: percent control (mortality, anti-feedant effect or growth inhibition) at 200 ppm [1] | percent control (mortality or growth inhibition) at 200 ppm [2] | mortality at 500 ppm [3] | percent control (mortality, anti-feedant effect or growth inhibition) at 200 ppm [4]

CC(NC(=O)c1cc(OCC(F)F)cc(C(F)(F)F)c1)c1nc(Br)nn1-c1ccc(OC(F)F)cn1 (stereo not shown) [Compound P34, N-[1-[5-bromo-2-[5-(difluoromethoxy)-2-pyridyl]-1,2,4-triazol-3-yl]ethyl]-3-(2,2-difluoroethoxy)-5-(trifluoromethyl) benzamide]
≥ 80%: percent control (mortality, anti-feedant effect or growth inhibition) at 200 ppm [1] | percent control (mortality or growth inhibition) at 200 ppm [2] | percent control (mortality, anti-feedant effect or growth inhibition) at 200 ppm [4] | percent control (mortality or growth inhibition) at 200 ppm [5]

CC(NC(=O)c1cc(OCC(F)F)cc(C(F)(F)F)c1)c1nc(Br)nn1-c1ccc(OCC(F)F)cn1 (stereo not shown) [Compound P36, N-[1-[5-bromo-2-[5-(2,2-difluoroethoxy)-2-pyridyl]-1,2,4-triazol-3-yl]ethyl]-3-(2,2-difluoroethoxy)-5-(trifluoromethyl) benzamide]
≥ 80%: percent control (mortality or growth inhibition) at 200 ppm [2] | mortality at 500 ppm [3] | percent control (mortality, anti-feedant effect or growth inhibition) at 200 ppm [4]

CC(NC(=O)c1cc(OC(F)F)cc(C(F)(F)F)c1)c1nc(Br)nn1-c1ccc(OCC(F)(F)F)cn1 (stereo not shown) [Compound P38, N-[1-[5-bromo-2-[5-(2,2,2-trifluoroethoxy)-2-pyridyl]-1,2,4-triazol-3-yl]ethyl]-3-(difluoromethoxy)-5-(trifluoromethyl) benzamide]
≥ 80%: percent control (mortality, anti-feedant effect or growth inhibition) at 200 ppm [1] | percent control (mortality or growth inhibition) at 200 ppm [2] | percent control (mortality, anti-feedant effect or growth inhibition) at 200 ppm [4] | percent control (mortality or growth inhibition) at 200 ppm [5]

CC(NC(=O)c1cc(C(F)F)cc(C(F)(F)F)c1)c1nc(Br)nn1-c1ccc(OC(F)F)cn1 (stereo not shown) [Compound P51, N-[1-[5-bromo-2-[5-(difluoromethoxy)-2-pyridyl]-1,2,4-triazol-3-yl]ethyl]-3-(difluoromethyl)-5-(trifluoromethyl) benzamide]
≥ 80%: percent control (mortality, anti-feedant effect or growth inhibition) at 200 ppm [1] | percent control (mortality or growth inhibition) at 200 ppm [2] | percent control (mortality, anti-feedant effect or growth inhibition) at 200 ppm [4] | percent control (mortality or growth inhibition) at 200 ppm [5]

CC(NC(=O)c1cc(OCC(F)(F)F)cc(C(F)(F)F)c1)c1nc(Br)nn1-c1ccc(OCC(F)F)cn1 (stereo not shown) [Compound P53, N-[1-[5-bromo-2-[5-(2,2-difluoroethoxy)-2-pyridyl]-1,2,4-triazol-3-yl]ethyl]-3-(2,2,2-trifluoroethoxy)-5-(trifluoromethyl) benzamide]
≥ 80%: percent control (mortality, anti-feedant effect or growth inhibition) at 200 ppm [1] | percent control (mortality or growth inhibition) at 200 ppm [2] | mortality at 500 ppm [3]

CC(NC(=O)c1cc(C(F)F)cc(C(F)(F)F)c1)c1nc(Br)nn1-c1ccc(OCC(F)(F)F)cn1 (stereo not shown) [Compound P54, N-[1-[5-bromo-2-[5-(2,2,2-trifluoroethoxy)-2-pyridyl]-1,2,4-triazol-3-yl]ethyl]-3-(difluoromethyl)-5-(trifluoromethyl) benzamide]
≥ 80%: percent control (mortality, anti-feedant effect or growth inhibition) at 200 ppm [1] | percent control (mortality or growth inhibition) at 200 ppm [2] | percent control (mortality, anti-feedant effect or growth inhibition) at 200 ppm [4] | percent control (mortality or growth inhibition) at 200 ppm [5]

CO/N=C(\C)c1nc(C(C)NC(=O)c2cc(C(F)(F)F)cc(C(F)(F)F)c2)n(-c2ccc(C#N)cn2)n1 (stereo not shown) [Compound P56, N-[1-[2-(5-cyano-2-pyridyl)-5-[(E)-N-methoxy-C-methyl-carbonimidoyl]-1,2,4-triazol-3-yl]ethyl]-3,5-bis(trifluoromethyl) benzamide]
≥ 80%: mortality at 500 ppm [3]
